Reference: EP0983768A1, “MEDICINAL COMPOSITION FOR PREVENTION OR TREATMENT OF HEPATOPATHY” (Nippon Shinyaku Co., Ltd., priority 1997, dated 1998)
Marks after values point to notes of the source that are not given here.

Columns and labels:
[1] = test system: concanavalin A-induced hepatic damage in mice; test: Inhibitory effect on concanavalin A-induced hepatic damage (plasma transaminase activities GOT, GPT); assay type: in vivo; settings: male BALB/c mice; for Inhibition rate (%) i.p. GOT / Inhibition rate (%) p.o. GOT: plasma GOT 24 hours after con A; for Inhibition rate (%) i.p. GPT / Inhibition rate (%) p.o. GPT: plasma GPT 24 hours after con A
Protocol: The hepatic damage inhibitory effect of the adenosine A2 receptor agonist of the invention can be verified by a test using mice as described below. Among the various animal models proposed for the evaluation of hepatic damage inhibitory activity, the disease model used in this test resembles human hepatitis in the mechanism of onset. Using 6-weeks old male BALB/c mice in groups of 17-20, the test drug was administered intraperitoneally or orally. At 30 minutes after intraperitoneal administration of the test drug or 1 hour after oral administration, 0.6 mg of concanavalin A (con A) was administered intravenously to each animal to induce hepatic damage. At 24 hours after administration of con A, plasma transaminase activities [GOT (glutamic-oxaloacetic transaminase), GPT (glutamic-pyruvic transaminase)] were determined. The plasma transaminase activity inhibition rate in each group given a test drug relative to the control group was calculated by means of the following equation. Inhibition rate (%) = [(C-D)/C] × 100 [formula] where C represents the mean value of plasma transaminase activity in the control group and D represents the mean value of plasma transaminase activity in the group given a test drug.

ICR mice = settings: 1000 mg/kg orally, 7-8 weeks old; cited from earlier work
[2] = 0.3 mg/kg i.p. 30 minutes before con A
[3] = 3 mg/kg i.p. 30 minutes before con A
[4] = 3 mg/kg p.o. 1 hour before con A
[5] = 1 mg/kg i.p. 30 minutes before con A
[6] = 1 mg/kg p.o. 1 hour before con A

## CCNC(=O)[C@H]1O[C@@H](n2cnc3c(N)nc(NCCc4ccc(CCC(=O)O)cc4)nc32)[C@H](O)[C@@H]1O [Compound 1, 1-[6-amino-2-[(2-(4-(2-carboxyethyl)phenyl)-ethyl)amino]-9H-purin-9-yl]-1-deoxy-N-ethyl-β-D-ribofuranuronamide]
[1]; [2]
  Inhibition rate (%) i.p. GOT: 85** %
  Inhibition rate (%) i.p. GPT: 88** %
[1]; [3]
  Inhibition rate (%) i.p. GOT: 93** %
  Inhibition rate (%) i.p. GPT: 98** %
[1]; [4]
  Inhibition rate (%) p.o. GOT: 64* %
  Inhibition rate (%) p.o. GPT: 58* %

## Nc1nc(Nc2ccccc2)nc2c1ncn2[C@@H]1O[C@H](CO)[C@@H](O)[C@H]1O [Compound 2, 2-(phenylamino)adenosine]
[1]; [2]
  Inhibition rate (%) i.p. GOT: 61** %
  Inhibition rate (%) i.p. GPT: 65** %
[1]; [5]
  Inhibition rate (%) i.p. GOT: 81** %
  Inhibition rate (%) i.p. GPT: 91** %

## COc1cc(OC)cc(C(CNc2ncnc3c2ncn3[C@@H]2O[C@H](CO)[C@@H](O)[C@H]2O)c2ccccc2C)c1 (stereo partly shown) [Compound 3, N^6-[2-(3,5-dimethoxyphenyl)-2-(2-methylphenyl)ethyl]adenosine]
[1]; [2]
  Inhibition rate (%) i.p. GOT: 61** %
  Inhibition rate (%) i.p. GPT: 60** %
[1]; [3]
  Inhibition rate (%) i.p. GOT: 83** %
  Inhibition rate (%) i.p. GPT: 87** %
[1]; [4]
  Inhibition rate (%) p.o. GOT: 86** %
  Inhibition rate (%) p.o. GPT: 88** %

## Nc1ncnc2c1ncn2[C@@H]1O[C@H](C(=O)NC2CC2)[C@@H](O)[C@H]1O [Compound 4, 1-(6-amino-9H-purin-9-yl)-1-deoxy-N-cyclopropyl-β-D-ribofuranuronamide]
[1]; [6]
  Inhibition rate (%) p.o. GOT: 49** %
  Inhibition rate (%) p.o. GPT: 56** %

## CCCCCCC#Cc1nc(N)c2ncn([C@@H]3O[C@H](CO)[C@@H](O)[C@H]3O)c2n1 [Compound 5, 2-(1-octyn-1-yl)adenosine]
[1]; [2]
  Inhibition rate (%) i.p. GOT: 90** %
  Inhibition rate (%) i.p. GPT: 96** %
[1]; [3]
  Inhibition rate (%) i.p. GOT: 91** %
  Inhibition rate (%) i.p. GPT: 96** %
[1]; [4]
  Inhibition rate (%) p.o. GOT: 93** %
  Inhibition rate (%) p.o. GPT: 97** %
ICR mice
  death: no death was encountered
